Data reported in patent US11744816B2, “Fixed dose combinations and formulations comprising ETC1002 and ezetimibe and methods of treating or reducing the risk of cardiovascular disease” (Esperion Therapeutics, Inc., priority 2015, dated 2023).

How the values were obtained:
[1] = system: hypercholesterolemic patients; test: Phase 2b double-blind trial: safety, treatment-emergent adverse events and laboratory abnormalities
Method: The study population included both statin-tolerant and statin-intolerant participants. Statin intolerance was defined as the inability to tolerate ≥2 statins because of muscle-related symptoms such as pain, weakness, or cramping that began or increased during statin therapy and resolved on statin discontinuation. At least 1 statin must have been administered at the lowest approved daily dose, defined as rosuvastatin 5 mg, atorvastatin 10 mg, simvastatin 10 mg, lovastatin 20 mg, pravastatin 40 mg, fluvastatin 40 mg, or pitavastatin 2 mg. Treatment with less than the lowest approved daily dose of a statin (i.e., skipping days) was considered equivalent to not tolerating 1 statin at the lowest approved daily dose.
Patients underwent a 5-week washout of all lipid-regulating drugs and dietary supplements and abstained from these drugs and supplements throughout the study. Patients also underwent a 5-week patient-only-blinded placebo run-in during the screening period (week −5 to week 0). This single-blind placebo run-in period was used to eliminate patients with muscle-related AEs during placebo treatment. Patients reporting new or worsening, unexplained muscle-related AEs during this run-in period were excluded from the study.
Patients were stratified (1:1) by history of statin intolerance and randomized at week 0 in a 4:4:4:1:1 ratio to once-daily treatment with capsules containing ETC-1002 120 mg, ETC-1002 180 mg, EZE, ETC-1002 120 mg plus EZE, or ETC-1002 180 mg plus EZE.
The safety of ETC-1002 was assessed using treatment-emergent AEs; hematology, serum chemistry, and urinalysis laboratory values; physical examination findings, vital sign measurements, electrocardiogram (ECG) readings; weight; and ankle and waist circumference measurements. AEs were coded using the Medical Dictionary for Regulatory Activities version 16.0 and evaluated by the investigator for severity and relation to study drug. Muscle-related AEs were defined as those from the system organ class of musculoskeletal and connective tissue disorders, except for those that were not obviously muscle related Terms included in the muscle-related AFE analysis were selected from this system organ class after database lock and before unblinding.
Safety analyses were performed on the safety population, which included randomized patients who received at least 1 dose of study drug. Baseline patient characteristics were summarized for the safety population by treatment group and statin-tolerance subgroup.
Muscle-related AEs also were summarized by statin-tolerance subgroup.

[2] = system: hypercholesterolemic patients; test: Phase 2b double-blind trial: percent changes from baseline to week 12 in lipids and CRP; type: in vivo, human
Method: LDL-C was calculated using the Friedewald equation.
The primary endpoint was the percent change from baseline to week 12 in calculated LDL-C in patients treated with ETC-1002 monotherapy versus those treated with EZE alone. Secondary endpoints included the dose-response relationship between ETC-1002 and the percent change in LDL-C from baseline to week 12, the percent change in LDL-C from baseline to week 12 in patients treated with ETC-1002 plus EZE versus those treated with EZE alone, and the percent change from baseline to week 12 for all treatment groups in LDL particle number, apolipoprotein B, total cholesterol, non-high-density lipoprotein cholesterol (non-HDL-C), HDL-C, HDL particle number, apolipoprotein A-I, triglycerides, very-low-density lipoprotein (VLDL) particle number, and high-sensitivity C-reactive protein (CRP). Lipoprotein particle number was measured using nuclear magnetic resonance […].
An analysis of covariance was used to compare each ETC-1002 treatment group with EZE monotherapy for each of the efficacy endpoints. The primary model included the effects of treatment and statin intolerance and the baseline value as a covariate. Baseline was defined as the mean of values from weeks −1 and 0 for LDL-C, non-HDL-C, total cholesterol, HDL-C, and triglycerides. For all other lipid and biomarker measures, baseline was defined as the last value before the first dose of study drug. Missing values at week 12 were imputed using the last-observation-carried-forward procedure. When LDL-C could not be calculated (i.e., triglycerides >400 mg/dL), beta-quantification measurements were used to determine LDL-C values. Least-squares (LS) means and standard errors were obtained for each treatment group; differences in LS means and p-values were obtained for the treatment comparisons. Graphical methods (e.g., normal probability plot and histogram of residuals, plot of residuals vs. predicted values) or analytical methods (e.g., Shapiro-Wilk test), or both, were used to assess the model assumptions. Because of departures from normality observed in the parameters of triglycerides, CRP, and VLDL particle number, nonparametric analyses were performed for these measures, with p-values obtained from the Wilcoxon rank-sum test and median values presented.
Percent changes from baseline in LDL-C also were summarized by statin-tolerance subgroup. To assess the dose-response relationship for ETC-1002 monotherapy, the primary analysis of covariance model was used for the comparison of the ETC-1002 120 mg and ETC-1002 180 mg. Statistical testing of the efficacy endpoints was 2-sided and conducted at the 5% level of significance with no adjustment for multiple comparisons.

[3] = EZE 10 mg once daily, 12 weeks, safety population
[4] = EZE 10 mg once daily, 12 weeks, statin-intolerant patients
[5] = EZE 10 mg once daily, 12 weeks, statin-tolerant patients
[6] = EZE 10 mg once daily, 12 weeks, mITT, LS mean ± SE

O=C1[C@H](CC[C@H](O)c2ccc(F)cc2)[C@@H](c2ccc(O)cc2)N1c1ccc(F)cc1 [EZE, (3R,4S)-1-(4-fluorophenyl)-3-[(3S)-3-(4-fluorophenyl)-3-hydroxypropyl]-4-(4-hydroxyphenyl)azetidin-2-one, reference compound]
Alanine aminotransferase or aspartate aminotransferase, or both, increased >3 times the upper limit of normal at any measurement ([1]; EZE): 1 patients | Serious AEs reported (events) ([1]; EZE): transient ischemic attack | Most common AEs: ALT increased [1, 3]: 1 (1%) n (%) | Most common AEs: AST increased [1, 3]: 0 n (%) | Most common AEs: Arthralgia [1, 3]: 4 (4%) n (%) | Most common AEs: Back pain [1, 3]: 8 (8%) n (%) | Most common AEs: Blood CK increased [1, 3]: 1 (1%) n (%) | Most common AEs: Constipation [1, 3]: 1 (1%) n (%) | Most common AEs: Headache [1, 3]: 1 (1%) n (%) | Most common AEs: Myalgia [1, 3]: 6 (6%) n (%) | Most common AEs: Nasopharyngitis [1, 3]: 4 (4%) n (%) | Most common AEs: Upper respiratory tract infection [1, 3]: 1 (1%) n (%) | Most common AEs: Urinary tract infection [1, 3]: 6 (6%) n (%) | Treatment-emergent AEs: Any AE(s) [1, 3]: 53 (54%) n (%) | Treatment-emergent AEs: Discontinuation due to AE(s) [1, 3]: 8 (8%) n (%) | Treatment-emergent AEs: Serious AE(s) [1, 3]: 1 (1%) n (%) | Treatment-emergent AEs: Study drug-related AE(s) [1, 3]: 19 (19%) n (%) | Any muscle-related AE [1, 4]: 9 (18%) n (%) | Muscle-related AE leading to discontinuation [1, 4]: 5 (10%) n (%) | Muscle-related AEs: Muscle spasms [1, 4]: 1 (2%) n (%) | Muscle-related AEs: Muscular weakness [1, 4]: 1 (2%) n (%) | Muscle-related AEs: Musculoskeletal chest pain [1, 4]: 0 n (%) | Muscle-related AEs: Musculoskeletal stiffness [1, 4]: 1 (2%) n (%) | Muscle-related AEs: Myalgia [1, 4]: 6 (12%) n (%) | Muscle-related AEs: Pain in extremity [1, 4]: 3 (6%) n (%) | Muscle-related AEs: Sensation of heaviness [1, 4]: 1 (2%) n (%) | Any muscle-related AE [1, 5]: 3 (6%) n (%) | Muscle-related AE leading to discontinuation [1, 5]: 1 (2%) n (%) | Muscle-related AEs: Muscle spasms [1, 5]: 2 (4%) n (%) | Muscle-related AEs: Musculoskeletal pain [1, 5]: 1 (2%) n (%) | Muscle-related AEs: Myalgia [1, 5]: 0 n (%) | Myalgia, patients affected ([1]; EZE alone, entire study population): 6% | Percent change from baseline to week 12 in Apolipoprotein A-I [2, 6]: 2.0 ± 1.1% | Percent change from baseline to week 12 in Apolipoprotein B [2, 6]: −15.2 ± 1.2% | Percent change from baseline to week 12 in HDL particle number [2, 6]: 6.7 ± 1.3% | Percent change from baseline to week 12 in HDL-C [2, 6]: 5.0 ± 1.4% | Percent change from baseline to week 12 in LDL particle number [2, 6]: −12.7 ± 1.7% | Percent change from baseline to week 12 in LDL-C [2, 6]: −21.2 ± 1.3% | Percent change from baseline to week 12 in Non-HDL-C [2, 6]: −18.7 ± 1.2% | Percent change from baseline to week 12 in Total cholesterol [2, 6]: −14.3 ± 0.9% | Percent change from baseline to week 12 in VLDL particle number ([2]; EZE 10 mg once daily, 12 weeks, mITT, median (interquartile range)): −12.6 (63.4) % | CRP reduction ([2]; EZE alone): 10% | HDL-C increase ([2]; EZE alone, week 12): 5%
